Measured values reported in DBAASP.
Converted amounts (≈) assume the structure as drawn. One block for each compound: values may come before it.

Key:
Experiment in all cases: ≥ marks a high value that may be exact or a test limit, other limits are often not marked, values filed in µg/mL are converted to µM
[1] = system: Bacillus subtilis KCTC 3068
[2] = system: Enterococcus faecalis VR
[3] = system: Enterococcus faecalis
[4] = system: Enterococcus faecium VR
[5] = system: Enterococcus faecium
[6] = system: Escherichia coli KCTC 1682
[7] = system: Pseudomonas aeruginosa KCTC 1637
[8] = system: Salmonella typhimurium KCTC 1926
[9] = system: Staphylococcus aureus KCTC 1621
[10] = system: Staphylococcus aureus MR
[11] = system: Staphylococcus epidermidis KCTC 1917
[12] = system: Escherichia coli JM109
[13] = system: Staphylococcus aureus ATCC 6538P
[14] = system: Staphylococcus aureus
[15] = system: Escherichia coli UB1005
[16] = system: Salmonella enterica subsp. enterica serovar Pullorum C79-13
[17] = system: Salmonella enterica subsp. enterica serovar Typhi CMCC 50071
[18] = system: Salmonella enterica subsp. enterica serovar Typhimurium ATCC 14028
[19] = system: Salmonella enterica subsp. enterica serovar Typhimurium C77-31
[20] = system: Staphylococcus aureus ATCC 25923
[21] = system: Staphylococcus aureus ATCC 29213
[22] = system: Staphylococcus epidermidis ATCC 12228
[23] = system: Acinetobacter baumannii ATCC 17987
[24] = system: Acinetobacter baumannii AYE
[25] = system: Enterococcus faecalis NCTC 12201
[26] = system: Enterococcus faecalis NCTC 12204
[27] = system: Enterococcus faecalis NCTC 775
[28] = system: Escherichia coli NCTC 12923
[29] = system: Klebsiella pneumoniae M6
[30] = system: Klebsiella pneumoniae NCTC 13368
[31] = system: Pseudomonas aeruginosa NCTC 13437
[32] = system: Pseudomonas aeruginosa PAO1
[33] = system: Pseudomonas syringae pv. tomato
[34] = system: Staphylococcus aureus 15
[35] = system: Staphylococcus aureus NCTC 9144
[36] = system: Xanthomonas axonopodis pv. phaseoli
[37] = system: Bacillus subtilis ATCC 6633
[38] = system: Escherichia coli ATCC 10536
[39] = system: Escherichia coli DH5alpha
[40] = system: Staphylococcus aureus ATCC 9144

SMILES: CC(C)C[C@H](NC(=O)[C@H](CS)NC(=O)[C@H](CCCCN)NC(=O)[C@H](C)NC(=O)[C@H](C)N)C(=O)N[C@H](C(=O)N[C@@H](CCC(N)=O)C(=O)N[C@@H](CCCN=C(N)N)C(=O)N[C@@H](CCCN=C(N)N)C(=O)N[C@@H](CCCN=C(N)N)C(N)=O)C(C)C [AAKCLVQRRR]
MIC [1]: 15 µM (≈ 18 µg/mL)
MIC [2]: 30 µM (≈ 36 µg/mL)
MIC [3]: 30 µM (≈ 36 µg/mL)
MIC [4]: 30 µM (≈ 36 µg/mL)
MIC [5]: 30 µM (≈ 36 µg/mL)
MIC [6]: 30 µM (≈ 36 µg/mL)
MIC [7]: 7.5 µM (≈ 9 µg/mL)
MIC [8]: 7.5 µM (≈ 9 µg/mL)
MIC [9]: 15 µM (≈ 18 µg/mL)
MIC [10]: 15 µM (≈ 18 µg/mL)
MIC [11]: 7.5 µM (≈ 9 µg/mL)

SMILES: CC[C@H](C)[C@H](NC(=O)[C@H](C)NC(=O)[C@H](CC(C)C)NC(=O)[C@H](CS)NC(=O)[C@H](Cc1cnc[nH]1)NC(=O)[C@H](C)NC(=O)[C@H](C)N)C(=O)NCC(=O)N[C@@H](CCCN=C(N)N)C(=O)N[C@@H](CCCN=C(N)N)C(N)=O [AAHCLAIGRR]
MIC [1]: 7.5 µM
MIC [2]: 30 µM
MIC [3]: 15 µM
MIC [4]: 15 µM
MIC [5]: 15 µM
MIC [12]: 15 µM
MIC [6]: 15 µM
MIC [7]: 15 µM
MIC [8]: 15 µM
MIC [13]: 4.68 µM
MIC [9]: 7.5 µM
MIC [10]: 30 µM
MIC [14]: > 60 µM
MIC [11]: 15 µM

SMILES: CC[C@H](C)[C@H](NC(=O)[C@H](C)NC(=O)[C@H](CC(C)C)NC(=O)[C@H](CS)NC(=O)[C@H](Cc1cnc[nH]1)NC(=O)[C@H](C)NC(=O)[C@H](C)N)C(=O)NCC(=O)N[C@@H](CCCN=C(N)N)C(=O)N[C@@H](CCCCN)C(N)=O [AAHCLAIGRK]
MIC [1]: 7.5 µM
MIC [2]: 30 µM
MIC [3]: 15 µM
MIC [4]: 3.8 µM
MIC [5]: 7.5 µM
MIC [6]: 7.5 µM
MIC [7]: 7.5 µM
MIC [8]: 7.5 µM
MIC [9]: 7.5 µM
MIC [10]: 7.5 µM
MIC [11]: 7.5 µM

Other lines, results leading:

MIC [15]: 8 µM (≈ 13 µg/mL)
MIC [16]: 16 µM (≈ 26.1 µg/mL)
MIC [17]: ≥ 128 µM
MIC [18]: 32 µM (≈ 52.2 µg/mL)
MIC [19]: ≥ 64 µM
MIC [20]: 32 µM (≈ 52.2 µg/mL)
MIC [21]: 32 µM (≈ 52.2 µg/mL)
MIC [22]: 64 µM (≈ 104 µg/mL)
SMILES: NC(=O)CC[C@H](NC(=O)[C@H](Cc1c[nH]c2ccccc12)NC(=O)[C@H](CCCN=C(N)N)NC(=O)[C@H](CCCN=C(N)N)NC(=O)[C@@H]1CCCN1C(=O)[C@@H](N)Cc1ccccc1)C(=O)N[C@@H](Cc1c[nH]c2ccccc12)C(=O)N[C@@H](CCCN=C(N)N)C(=O)N[C@@H](CCCN=C(N)N)C(=O)N1CCC[C@H]1C(=O)N[C@@H](Cc1ccccc1)C(N)=O [FPRRWQWRRPF]

MIC [23]: 21.8 µM (≈ 64 µg/mL)
MIC [24]: 10.9 µM (≈ 32 µg/mL)
MIC [25]: ≥ 43.7 µM
MIC [26]: ≥ 43.7 µM
MIC [27]: ≥ 43.7 µM
MIC [28]: 21.8 µM (≈ 64 µg/mL)
MIC [29]: ≥ 43.7 µM
MIC [30]: ≥ 43.7 µM
MIC [31]: ≥ 43.7 µM
MIC [32]: > 43.7 µM
MIC [33]: 5.46 µM (≈ 16 µg/mL)
MIC [34]: ≥ 43.7 µM
MIC [35]: ≥ 43.7 µM
MIC [36]: 1.37 µM (≈ 4 µg/mL)
SMILES: CC[C@H](C)[C@H](NC(=O)[C@H](CCC(=O)O)NC(=O)[C@H](CC(N)=O)NC(=O)[C@H](CCCCN)NC(=O)[C@H](CC(C)C)NC(=O)[C@H](Cc1ccc(O)cc1)NC(=O)[C@H](CCC(N)=O)NC(=O)[C@H](CCCN=C(N)N)NC(=O)[C@@H](NC(=O)[C@@H](NC(=O)[C@H](CCC(=O)O)NC(=O)[C@H](CCCCN)NC(=O)CNC(=O)[C@H](C)N)[C@@H](C)O)[C@@H](C)CC)C(=O)N[C@@H](CCCCN)C(=O)N[C@@H](CCCCN)C(=O)N[C@@H](CCCCN)C(=O)NCC(=O)N[C@@H](CCCN=C(N)N)C(=O)N[C@@H](CCCCN)C(=O)N[C@@H](C)C(=O)N[C@H](C(=O)N[C@H](C(=O)N[C@@H](C)C(=O)N[C@@H](Cc1c[nH]c2ccccc12)C(=O)O)[C@@H](C)CC)C(C)C [AGKETIRQYLKNEIKKKGRKAVIAW]

MIC [37]: 5.8 µM (≈ 16.5 µg/mL)
MIC [38]: 4.7 µM (≈ 13.4 µg/mL)
MIC [39]: 4.8 µM (≈ 13.7 µg/mL)
MIC [40]: 5 µM (≈ 14.2 µg/mL)
SMILES: CC[C@H](C)[C@H](NC(=O)CNC(=O)CN)C(=O)N[C@@H](CC(C)C)C(=O)N[C@H](C(=O)N[C@@H](C)C(=O)N[C@@H](CCCCN)C(=O)N[C@@H](CC(C)C)C(=O)N[C@H](C(=O)N[C@H](C(=O)N[C@H](C(=O)N[C@@H](CC(C)C)C(=O)NCC(=O)N1CCC[C@H]1C(=O)N[C@@H](C)C(=O)N[C@@H](CC(C)C)C(=O)N[C@H](C(=O)N[C@@H](CO)C(=O)N[C@@H](Cc1c[nH]c2ccccc12)C(=O)N[C@H](C(=O)N[C@@H](CCCCN)C(=O)N[C@@H](CCCN=C(N)N)C(=O)N[C@@H](CCCCN)C(=O)N[C@@H](CCCN=C(N)N)C(=O)N[C@@H](CCC(N)=O)C(=O)N[C@@H](CCC(N)=O)C(N)=O)[C@@H](C)CC)[C@@H](C)CC)[C@@H](C)O)[C@@H](C)O)C(C)C)C(C)C [GGILVAKLVTTLGPALISWIKRKRQQ]

MIC [23]: 21.9 µM (≈ 64 µg/mL)
MIC [24]: 21.9 µM (≈ 64 µg/mL)
MIC [25]: ≥ 43.8 µM
MIC [26]: ≥ 43.8 µM
MIC [27]: ≥ 43.8 µM
MIC [28]: 11 µM (≈ 32 µg/mL)
MIC [29]: ≥ 43.8 µM
MIC [30]: ≥ 43.8 µM
MIC [31]: ≥ 43.8 µM
MIC [32]: > 43.8 µM
MIC [33]: 1.37 µM (≈ 4 µg/mL)
MIC [34]: ≥ 43.8 µM
MIC [35]: ≥ 43.8 µM
MIC [36]: 0.342 µM (≈ 1 µg/mL)
SMILES: CC[C@H](C)[C@H](NC(=O)[C@H](CCC(=O)O)NC(=O)[C@H](CC(N)=O)NC(=O)[C@H](CCCCN)NC(=O)[C@H](CC(C)C)NC(=O)[C@H](CCCCN)NC(=O)[C@H](CCCCN)NC(=O)[C@H](CCCN=C(N)N)NC(=O)[C@@H](NC(=O)[C@H](CCCCN)NC(=O)[C@H](CCC(=O)O)NC(=O)[C@H](CCCCN)NC(=O)CNC(=O)[C@H](C)N)[C@@H](C)CC)C(=O)N[C@@H](CCCCN)C(=O)N[C@@H](CCCCN)C(=O)N[C@@H](CCCCN)C(=O)NCC(=O)N[C@@H](CCCN=C(N)N)C(=O)N[C@@H](CCCCN)C(=O)N[C@@H](C)C(=O)N[C@H](C(=O)N[C@H](C(=O)N[C@@H](C)C(=O)N[C@@H](Cc1c[nH]c2ccccc12)C(=O)O)[C@@H](C)CC)C(C)C [AGKEKIRKKLKNEIKKKGRKAVIAW]
